Data published in ChEMBL document CHEMBL1201862, “PubChem BioAssay data set” (2004).
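These data come from cells grown in 96-well plates and exposed to compound for 48 hours at five concentrations. GI50 marks 50% less growth.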 Activity calls are given as the source filed them. No stated cut-off is given here; in the data, active = GI50 up to about 1.1 µM and inactive = higher.

Legend:
Assay in all cases: NCI tumour cell line growth inhibition, 48 h
SK-MEL-2 = tested on: SK-MEL-2
MDA-MB-231 = tested on: MDA-MB-231
KM12 = tested on: KM12
A498 = tested on: A498
SN12C = tested on: SN12C
HT-29 = tested on: HT-29
UACC-62 = tested on: UACC-62
ACHN = tested on: ACHN
786-0 = tested on: 786-0
SW-620 = tested on: SW-620
SF-539 = tested on: SF-539
A549 = tested on: A549
NCI-H522 = tested on: NCI-H522
IGROV-1 = tested on: IGROV-1
TK-10 = tested on: TK-10
Hs-578T = tested on: Hs-578T
PC-3 = tested on: PC-3
MOLT-4 = tested on: MOLT-4
SK-MEL-28 = tested on: SK-MEL-28
HCC 2998 = tested on: HCC 2998

Measured: GI50

COc1ccc(N2C(=O)C3c4[nH]c5ccccc5c4C4CCC(c5ccccc5)CC4C3C2=O)cc1 (stereo not drawn)
inactive: SK-MEL-2 23.4 µM | MDA-MB-231 10.9 µM | KM12 > 70.5 µM | A498 29 µM | SN12C 28.5 µM | HT-29 > 57.5 µM | UACC-62 24.8 µM | ACHN 12.3 µM | 786-0 7.76 µM | SW-620 > 32.7 µM | SF-539 1.48 µM | A549 26.5 µM | NCI-H522 10.2 µM | IGROV-1 30.8 µM | TK-10 12.8 µM | Hs-578T 5.74 µM | PC-3 36.2 µM | MOLT-4 26.6 µM | SK-MEL-28 > 54.6 µM

NS(=O)(=O)c1ccc(NNC(=O)c2cccc3c(=O)c4ccccc4[nH]c23)cc1
inactive: SK-MEL-2 > 100 µM | MDA-MB-231 51.6 µM | KM12 42.1 µM | HCC 2998 > 100 µM | SN12C > 100 µM | HT-29 66.8 µM | UACC-62 88.5 µM | ACHN 91.6 µM | 786-0 > 100 µM | SW-620 72.6 µM | SF-539 > 100 µM | A549 > 100 µM | NCI-H522 41.4 µM | IGROV-1 58.5 µM | TK-10 > 100 µM | Hs-578T 72.8 µM | PC-3 65.6 µM | MOLT-4 42.2 µM | SK-MEL-28 > 100 µM

COc1cc(-c2coc3c(OC)c(OC4OC(CO)C(O)C(O)C4O)c(OC)cc3c2=O)cc(OC)c1C (stereo not drawn)
inactive: SK-MEL-2 16.1 µM | MDA-MB-231 15.1 µM | KM12 4.79 µM | HCC 2998 3.89 µM | SN12C 4.07 µM | HT-29 7.03 µM | UACC-62 4.42 µM | ACHN 7.55 µM | 786-0 1.28 µM | SW-620 6.1 µM | SF-539 3.69 µM | A549 7.13 µM | NCI-H522 3.36 µM | IGROV-1 4.65 µM | TK-10 18.4 µM | Hs-578T 4.17 µM | PC-3 7.01 µM | MOLT-4 5.9 µM | SK-MEL-28 4.8 µM

CC(C1CCCC1=O)C1CCCC1=O (stereo not drawn)
inactive: SK-MEL-2 > 100 µM | MDA-MB-231 > 100 µM | KM12 > 100 µM | HCC 2998 > 100 µM | SN12C > 100 µM | HT-29 > 100 µM | UACC-62 > 100 µM | ACHN > 100 µM | 786-0 > 100 µM | SW-620 > 100 µM | SF-539 > 100 µM | A549 > 100 µM | NCI-H522 > 100 µM | IGROV-1 > 100 µM | TK-10 > 100 µM | Hs-578T 92 µM | PC-3 > 100 µM | MOLT-4 > 100 µM | SK-MEL-28 > 100 µM

Nc1nc2ccc(Sc3ccc4nc(N)[nH]c(=O)c4c3)cc2c(=O)[nH]1
inactive: SK-MEL-2 > 100 µM | MDA-MB-231 67.3 µM | KM12 > 100 µM | HCC 2998 > 100 µM | SN12C > 100 µM | HT-29 > 100 µM | UACC-62 > 100 µM | ACHN > 100 µM | 786-0 > 100 µM | SW-620 > 100 µM | SF-539 > 100 µM | A549 > 100 µM | NCI-H522 > 100 µM | IGROV-1 61.1 µM | TK-10 > 100 µM | Hs-578T > 100 µM | PC-3 > 100 µM | MOLT-4 > 100 µM | SK-MEL-28 > 100 µM

O=C1OC(C2Cc3ccccc3C2=O)c2ccccc21 (stereo not drawn)
inactive: SK-MEL-2 > 100 µM | MDA-MB-231 > 100 µM | KM12 > 100 µM | HCC 2998 > 100 µM | SN12C > 100 µM | HT-29 26.1 µM | UACC-62 > 100 µM | ACHN > 100 µM | 786-0 > 100 µM | SW-620 > 100 µM | SF-539 > 100 µM | A549 > 100 µM | NCI-H522 > 100 µM | IGROV-1 > 100 µM | TK-10 > 100 µM | Hs-578T > 100 µM | PC-3 > 100 µM | MOLT-4 > 100 µM | SK-MEL-28 > 100 µM

O=C1NCC2(CCN(Cc3ccccc3)CC2)N1
inactive: SK-MEL-2 > 100 µM | MDA-MB-231 > 100 µM | KM12 > 100 µM | HCC 2998 > 100 µM | SN12C > 100 µM | HT-29 > 100 µM | UACC-62 > 100 µM | ACHN > 100 µM | 786-0 > 100 µM | SW-620 > 100 µM | SF-539 > 100 µM | A549 > 100 µM | NCI-H522 > 100 µM | IGROV-1 > 100 µM | TK-10 > 100 µM | Hs-578T > 100 µM | PC-3 > 100 µM | MOLT-4 > 100 µM | SK-MEL-28 > 100 µM
